Data: ChEMBL document CHEMBL1121858, “Synthesis and antimalarial activity of 8-[(1-alkyl-4-aminobutyl)amino]-6-methoxy-4-methylquinolines” (1981)
Several values for one entry are separate records, joined by “and”; a condition that tells them apart may be missing. Equal values may be shown once.

Columns and labels:
Format in all cases: functional
Mus musculus [1] = assay: Mean survival time of Plasmodium berghei infected mice (Mus musculus) after administration of single dose of 20 mg/kg intravenously; conditions: route intravenous
Mus musculus [2] = assay: Mean survival time of Plasmodium berghei infected mice (Mus musculus) after administration of single dose of 80 mg/kg intravenously; conditions: route intravenous
Mus musculus [3] = assay: Mean survival time of Plasmodium berghei infected mice (Mus musculus) after administration of single dose of […] intravenously
Mus musculus [4] = assay: Mean survival time of Plasmodium berghei infected mice (Mus musculus) after administration of single dose of 40 mg/kg intravenously; conditions: route intravenous
Mus musculus [5] = assay: Mean survival time of Plasmodium berghei infected mice (Mus musculus) after administration of single dose of 160 mg/kg intravenously; conditions: route intravenous
Mus musculus [6] = assay: Mean survival time of Plasmodium berghei infected mice (Mus musculus) after administration of single dose of 640 mg/kg intravenously; conditions: route intravenous

SMILES	MST (Mus musculus [1])	MST (Mus musculus [2])	MST (Mus musculus [3])	MST (Mus musculus [4])	MST (Mus musculus [5])	MST (Mus musculus [6])	MST (Mus musculus [1]; 20 mg/kg)	MST (Mus musculus [2]; 80 mg/kg)	MST (Mus musculus [4]; 40 mg/kg)	MST (Mus musculus [5]; 160 mg/kg)
CCCC(CCCN)Nc1cc(OC)cc2c(C)ccnc12.O=P(O)(O)O (centres undefined)	3.1 days	5.7 days	9.1 days	4.1 days	6.3 days	12.3 days				
COc1cc(NC(C)CCCN)c2ncccc2c1.O=P(O)(O)O.O=P(O)(O)O (centres undefined) [PRIMAQUINE PHOSPHATE]			5 days			5 days	2.2 days and 4 days	6.4 days and 9.4 days	4.2 days and 5 days	7 days and 10.8 days
CCC(CCCN)Nc1cc(OC)cc2c(C)ccnc12.O=P(O)(O)O (centres undefined)	7.3 days	9.7 days	5 days	7.9 days	11.5 days	5 days				
COc1cc(NC(CCCN)C(C)C)c2nccc(C)c2c1.O=P(O)(O)O (centres undefined)	3.4 days	6.8 days	7.2 days	5.2 days	7.8 days	1 days				
